From ChEMBL document CHEMBL3885881, “DrugMatrix”

Species: Rattus norvegicus
Assay: DrugMatrix - Regimen: Daily Repeat
Type: toxicity, organism-based, Sprague-Dawley
Parameters: regimen Daily Repeat, gender Male, age 6-8 weeks
Details: in vivo, po, route oral GAVAGE, vehicle .5 % CMC; for BASOPHIL / EOSINOPHIL / ERYTHROCYTE COUNT / HEMATOCRIT / HEMOGLOBIN / LEUKOCYTE COUNT / LYMPHOCYTE / MEAN CORPUSCULAR HEMOGLOBIN / MEAN CORPUSCULAR HEMOGLOBIN CONCENTRATION / MEAN CORPUSCULAR VOLUME / MONOCYTE / NEUTROPHIL / PLATELET COUNT: tissue Blood; for ALANINE AMINOTRANSFERASE / ALBUMIN / ALKALINE PHOSPHATASE / ASPARTATE AMINOTRANSFERASE / BLOOD UREA NITROGEN / CARBON DIOXIDE / CHLORIDE / CHOLESTEROL / CREATINE PHOSPHOKINASE / CREATININE / GLUCOSE / LACTATE DEHYDROGENASE / LIPASE / PHOSPHORUS / POTASSIUM / SODIUM / TOTAL BILIRUBIN / TOTAL PROTEIN / URIC ACID: tissue Plasma
[1] = 0 mg/kg, 96 h, dose level Control, time 4 day
[2] = 0 mg/kg, […], dose level Control, time 6 day
[3] = 0 mg/kg, […], dose level Control, time 14 day
[4] = […], 96 h, dose 4.6 mg/Kg, dose level High, time 4 day
[5] = […], dose 4.6 mg/Kg, dose level High, time 6 day
[6] = […], dose 4.6 mg/Kg, dose level High, time 14 day

COc1ccc(C(=O)Nc2c(Cl)c[n+]([O-])cc2Cl)c2ccc(C(F)(F)F)nc12 [SCH-351591]
BASOPHIL [1]: 0.5%
EOSINOPHIL [1]: 1.85%
ERYTHROCYTE COUNT [1]: 6.99 x10E6/uL
HEMATOCRIT [1]: 43.82%
HEMOGLOBIN [1]: 13.87 G/DL
LEUKOCYTE COUNT [1]: 12.01 x10E3/uL
LYMPHOCYTE [1]: 82.07%
MEAN CORPUSCULAR HEMOGLOBIN [1]: 19.8 pg
MEAN CORPUSCULAR HEMOGLOBIN CONCENTRATION [1]: 31.63 G/DL
MEAN CORPUSCULAR VOLUME [1]: 62.7 fL
MONOCYTE [1]: 2.6%
NEUTROPHIL [1]: 12.38%
PLATELET COUNT [1]: 1155 x10E3/uL
ALANINE AMINOTRANSFERASE [1]: 31.67 u/L
ALBUMIN [1]: 4.12 G/DL
ALKALINE PHOSPHATASE [1]: 396 u/L
ASPARTATE AMINOTRANSFERASE [1]: 75.67 u/L
BLOOD UREA NITROGEN [1]: 17.5 mg/dL
CARBON DIOXIDE [1]: 28.83 mmol/L
CHLORIDE [1]: 103.83 MEQ/L
CHOLESTEROL [1]: 84.83 mg/dL
CREATINE PHOSPHOKINASE [1]: 597.17 u/L
CREATININE [1]: 0.3 mg/dL
GLUCOSE [1]: 161.5 mg/dL
LACTATE DEHYDROGENASE [1]: 138.67 u/L
LIPASE [1]: 11.5 u/L
PHOSPHORUS [1]: 11.58 mg/dL
POTASSIUM [1]: 6.87 MEQ/L
SODIUM [1]: 146.83 MEQ/L
TOTAL BILIRUBIN [1]: 0.38 mg/dL
TOTAL PROTEIN [1]: 6.33 G/DL
URIC ACID [1]: 1.37 mg/dL
BASOPHIL [2]: 0.37%
EOSINOPHIL [2]: 0.38%
ERYTHROCYTE COUNT [2]: 6.89 x10E6/uL
HEMATOCRIT [2]: 47.38%
HEMOGLOBIN [2]: 14.8 G/DL
LEUKOCYTE COUNT [2]: 13.59 x10E3/uL
LYMPHOCYTE [2]: 80.27%
MEAN CORPUSCULAR HEMOGLOBIN [2]: 21.52 pg
MEAN CORPUSCULAR HEMOGLOBIN CONCENTRATION [2]: 31.22 G/DL
MEAN CORPUSCULAR VOLUME [2]: 68.83 fL
MONOCYTE [2]: 2.78%
NEUTROPHIL [2]: 15.65%
PLATELET COUNT [2]: 1330.17 x10E3/uL
BASOPHIL [3]: 0.38%
EOSINOPHIL [3]: 0.6%
ERYTHROCYTE COUNT [3]: 7.78 x10E6/uL
HEMATOCRIT [3]: 48.3%
HEMOGLOBIN [3]: 15.42 G/DL
LEUKOCYTE COUNT [3]: 13.55 x10E3/uL
LYMPHOCYTE [3]: 81.18%
MEAN CORPUSCULAR HEMOGLOBIN [3]: 19.8 pg
MEAN CORPUSCULAR HEMOGLOBIN CONCENTRATION [3]: 31.92 G/DL
MEAN CORPUSCULAR VOLUME [3]: 62.08 fL
MONOCYTE [3]: 1.72%
NEUTROPHIL [3]: 15.17%
PLATELET COUNT [3]: 1083.83 x10E3/uL
ALANINE AMINOTRANSFERASE [2]: 36 u/L
ALBUMIN [2]: 4.03 G/DL
ALKALINE PHOSPHATASE [2]: 354.17 u/L
ASPARTATE AMINOTRANSFERASE [2]: 76.5 u/L
BLOOD UREA NITROGEN [2]: 19.33 mg/dL
CARBON DIOXIDE [2]: 27.83 mmol/L
CHLORIDE [2]: 105.5 MEQ/L
CHOLESTEROL [2]: 68.83 mg/dL
CREATINE PHOSPHOKINASE [2]: 383.83 u/L
CREATININE [2]: 0.35 mg/dL
GLUCOSE [2]: 165.83 mg/dL
LACTATE DEHYDROGENASE [2]: 155.17 u/L
LIPASE [2]: 9.83 u/L
PHOSPHORUS [2]: 12.4 mg/dL
POTASSIUM [2]: 6.9 MEQ/L
SODIUM [2]: 147.33 MEQ/L
TOTAL BILIRUBIN [2]: 0.52 mg/dL
TOTAL PROTEIN [2]: 6.42 G/DL
URIC ACID [2]: 1.6 mg/dL
ALANINE AMINOTRANSFERASE [3]: 36.83 u/L
ALBUMIN [3]: 4.13 G/DL
ALKALINE PHOSPHATASE [3]: 328.17 u/L
ASPARTATE AMINOTRANSFERASE [3]: 74.83 u/L
BLOOD UREA NITROGEN [3]: 18.67 mg/dL
CARBON DIOXIDE [3]: 29.33 mmol/L
CHLORIDE [3]: 105.17 MEQ/L
CHOLESTEROL [3]: 72 mg/dL
CREATINE PHOSPHOKINASE [3]: 217.67 u/L
CREATININE [3]: 0.45 mg/dL
GLUCOSE [3]: 151.17 mg/dL
LACTATE DEHYDROGENASE [3]: 133.17 u/L
LIPASE [3]: 14.5 u/L
PHOSPHORUS [3]: 11.55 mg/dL
POTASSIUM [3]: 6.77 MEQ/L
SODIUM [3]: 149.33 MEQ/L
TOTAL BILIRUBIN [3]: 0.37 mg/dL
TOTAL PROTEIN [3]: 6.62 G/DL
URIC ACID [3]: 1.57 mg/dL
BASOPHIL [4]: 0.27%
EOSINOPHIL [4]: 1.13%
ERYTHROCYTE COUNT [4]: 6.53 x10E6/uL
HEMATOCRIT [4]: 40.97%
HEMOGLOBIN [4]: 13.13 G/DL
LEUKOCYTE COUNT [4]: 18.12 x10E3/uL
LYMPHOCYTE [4]: 79.83%
MEAN CORPUSCULAR HEMOGLOBIN [4]: 20.13 pg
MEAN CORPUSCULAR HEMOGLOBIN CONCENTRATION [4]: 32.1 G/DL
MEAN CORPUSCULAR VOLUME [4]: 62.73 fL
MONOCYTE [4]: 2.33%
NEUTROPHIL [4]: 15.77%
PLATELET COUNT [4]: 1324.67 x10E3/uL
ALANINE AMINOTRANSFERASE [4]: 40.33 u/L
ALBUMIN [4]: 3.93 G/DL
ALKALINE PHOSPHATASE [4]: 341 u/L
ASPARTATE AMINOTRANSFERASE [4]: 77 u/L
BLOOD UREA NITROGEN [4]: 21.33 mg/dL
CARBON DIOXIDE [4]: 23.33 mmol/L
CHLORIDE [4]: 105 MEQ/L
CHOLESTEROL [4]: 88 mg/dL
CREATINE PHOSPHOKINASE [4]: 540.67 u/L
CREATININE [4]: 0.4 mg/dL
GLUCOSE [4]: 177 mg/dL
LACTATE DEHYDROGENASE [4]: 256 u/L
LIPASE [4]: 18 u/L
PHOSPHORUS [4]: 12.67 mg/dL
POTASSIUM [4]: 6.37 MEQ/L
SODIUM [4]: 146.33 MEQ/L
TOTAL BILIRUBIN [4]: 0.37 mg/dL
TOTAL PROTEIN [4]: 6.23 G/DL
URIC ACID [4]: 1.67 mg/dL
BASOPHIL [5]: 0.33%
EOSINOPHIL [5]: 0.37%
ERYTHROCYTE COUNT [5]: 7.26 x10E6/uL
HEMATOCRIT [5]: 48.6%
HEMOGLOBIN [5]: 14.77 G/DL
LEUKOCYTE COUNT [5]: 20.98 x10E3/uL
LYMPHOCYTE [5]: 75.93%
MEAN CORPUSCULAR HEMOGLOBIN [5]: 20.37 pg
MEAN CORPUSCULAR HEMOGLOBIN CONCENTRATION [5]: 30.33 G/DL
MEAN CORPUSCULAR VOLUME [5]: 67.07 fL
MONOCYTE [5]: 2.13%
NEUTROPHIL [5]: 19.93%
PLATELET COUNT [5]: 1217.67 x10E3/uL
BASOPHIL [6]: 0.38%
EOSINOPHIL [6]: 0.52%
ERYTHROCYTE COUNT [6]: 7.4 x10E6/uL
HEMATOCRIT [6]: 46.48%
HEMOGLOBIN [6]: 14.82 G/DL
LEUKOCYTE COUNT [6]: 23.35 x10E3/uL
LYMPHOCYTE [6]: 67.1%
MEAN CORPUSCULAR HEMOGLOBIN [6]: 20.06 pg
MEAN CORPUSCULAR HEMOGLOBIN CONCENTRATION [6]: 31.86 G/DL
MEAN CORPUSCULAR VOLUME [6]: 62.92 fL
MONOCYTE [6]: 1.96%
NEUTROPHIL [6]: 28.36%
PLATELET COUNT [6]: 1247.4 x10E3/uL
ALANINE AMINOTRANSFERASE [5]: 24.33 u/L
ALBUMIN [5]: 3.9 G/DL
ALKALINE PHOSPHATASE [5]: 313.33 u/L
ASPARTATE AMINOTRANSFERASE [5]: 61.33 u/L
BLOOD UREA NITROGEN [5]: 17.67 mg/dL
CARBON DIOXIDE [5]: 25.67 mmol/L
CHLORIDE [5]: 108.33 MEQ/L
CHOLESTEROL [5]: 80.67 mg/dL
CREATINE PHOSPHOKINASE [5]: 190.33 u/L
CREATININE [5]: 0.47 mg/dL
GLUCOSE [5]: 161 mg/dL
LACTATE DEHYDROGENASE [5]: 82 u/L
LIPASE [5]: 43.33 u/L
PHOSPHORUS [5]: 12.93 mg/dL
POTASSIUM [5]: 6.5 MEQ/L
SODIUM [5]: 149.33 MEQ/L
TOTAL BILIRUBIN [5]: 0.43 mg/dL
TOTAL PROTEIN [5]: 6.13 G/DL
URIC ACID [5]: 1.47 mg/dL
ALANINE AMINOTRANSFERASE [6]: 34.6 u/L
ALBUMIN [6]: 3.96 G/DL
ALKALINE PHOSPHATASE [6]: 330.4 u/L
ASPARTATE AMINOTRANSFERASE [6]: 65.6 u/L
BLOOD UREA NITROGEN [6]: 21 mg/dL
CARBON DIOXIDE [6]: 26.2 mmol/L
CHLORIDE [6]: 106.4 MEQ/L
CHOLESTEROL [6]: 70 mg/dL
CREATINE PHOSPHOKINASE [6]: 225.2 u/L
CREATININE [6]: 0.48 mg/dL
GLUCOSE [6]: 157.4 mg/dL
LACTATE DEHYDROGENASE [6]: 185.6 u/L
LIPASE [6]: 29.2 u/L
PHOSPHORUS [6]: 11.86 mg/dL
POTASSIUM [6]: 6.36 MEQ/L
SODIUM [6]: 149.8 MEQ/L
TOTAL BILIRUBIN [6]: 0.38 mg/dL
TOTAL PROTEIN [6]: 6.36 G/DL
URIC ACID [6]: 1.84 mg/dL
